Test results reported in US20220127247A1, “N-(PYRIDIN-2-YL)PYRIDINE-SULFONAMIDE DERIVATIVES AND THEIR USE IN THE TREATMENT OF DISEASE” (NOVARTIS AG, priority 2019, published 2022).

Molecular target: T1, delF508-CFTR (Homo sapiens, UniProt P13569, DEL508-508)
T1 construct: expressed in transfected cells
Assay: Measurement of delF508-CFTR-HRP surface expression in CFBE41o- cells
Assay type: cell-based
Conditions: for EC50: HRP-tagged delF508-CFTR in CFBE41o- cells, 24 h with compound, luminescence, 10-point curve, top 10 μM; for Emax: efficacy relative to reference compound 3-(6-(1-(2,2-difluorobenzo[d][1,3]dioxol-5-yl)cyclopropane-1-carboxamido)-3-methylpyridin-2-yl)benzoic acid, CFBE41o- cells, 24 h, read-out: DelF508-CFTR-HRP Amax %
Method in brief: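 CFBE41o- cells stably expressing delF508-CFTR with HRP in the fourth extracellular loop, induced with 500 ng/mL doxycycline for 48 h, then treated with compound (top 10 μM, 10-point 3-fold) for 24 h at 37° C. Surface HRP detected by luminescence with cell-impermeant substrate; EC50 from logistic fit of triplicates, normalized to lowest concentration.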

T1 sequence (P13569 with tags, fused parts or gaps DEL508-508): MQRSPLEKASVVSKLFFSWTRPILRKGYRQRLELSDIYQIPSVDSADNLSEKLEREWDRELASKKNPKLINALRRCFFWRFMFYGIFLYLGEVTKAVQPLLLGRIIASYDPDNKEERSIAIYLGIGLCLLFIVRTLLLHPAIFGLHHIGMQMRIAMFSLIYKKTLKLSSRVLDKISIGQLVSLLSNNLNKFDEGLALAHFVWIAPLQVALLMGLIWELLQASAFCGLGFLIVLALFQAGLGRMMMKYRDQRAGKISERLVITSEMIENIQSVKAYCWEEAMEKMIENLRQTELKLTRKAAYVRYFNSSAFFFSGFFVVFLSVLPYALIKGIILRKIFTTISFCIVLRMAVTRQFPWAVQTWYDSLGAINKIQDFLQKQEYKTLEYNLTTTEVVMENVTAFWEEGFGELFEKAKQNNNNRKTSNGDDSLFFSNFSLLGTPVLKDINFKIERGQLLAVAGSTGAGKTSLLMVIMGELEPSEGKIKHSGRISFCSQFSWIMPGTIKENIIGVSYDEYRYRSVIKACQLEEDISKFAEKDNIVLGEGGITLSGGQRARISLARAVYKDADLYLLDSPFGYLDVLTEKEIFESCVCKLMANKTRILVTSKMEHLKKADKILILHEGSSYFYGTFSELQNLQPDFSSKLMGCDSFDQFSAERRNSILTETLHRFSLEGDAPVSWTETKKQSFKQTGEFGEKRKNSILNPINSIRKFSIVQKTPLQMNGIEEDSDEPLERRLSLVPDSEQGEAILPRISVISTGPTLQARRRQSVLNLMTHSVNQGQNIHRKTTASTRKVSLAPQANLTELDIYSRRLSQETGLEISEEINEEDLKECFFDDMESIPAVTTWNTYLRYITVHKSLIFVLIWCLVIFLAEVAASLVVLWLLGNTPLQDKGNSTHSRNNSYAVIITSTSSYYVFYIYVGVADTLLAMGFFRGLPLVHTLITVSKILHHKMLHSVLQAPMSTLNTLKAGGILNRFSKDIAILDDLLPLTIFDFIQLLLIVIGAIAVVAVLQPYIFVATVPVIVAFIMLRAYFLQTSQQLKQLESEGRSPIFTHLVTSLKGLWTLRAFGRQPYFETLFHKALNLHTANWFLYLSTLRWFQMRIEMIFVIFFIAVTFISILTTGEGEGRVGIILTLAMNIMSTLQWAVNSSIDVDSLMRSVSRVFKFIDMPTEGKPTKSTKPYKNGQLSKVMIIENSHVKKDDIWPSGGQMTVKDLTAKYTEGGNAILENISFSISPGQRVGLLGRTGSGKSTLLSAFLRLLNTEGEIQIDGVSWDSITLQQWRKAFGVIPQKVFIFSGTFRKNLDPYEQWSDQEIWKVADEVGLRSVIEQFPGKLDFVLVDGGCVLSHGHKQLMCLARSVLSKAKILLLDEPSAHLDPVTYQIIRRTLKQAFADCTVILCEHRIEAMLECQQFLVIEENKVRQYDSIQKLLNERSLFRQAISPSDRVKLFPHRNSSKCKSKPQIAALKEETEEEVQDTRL

Row | EC50 | Emax | Compound
1 | 2240 nM | 378% | CC1(C(=O)O)CCN(c2cccc(S(=O)(=O)Nc3ccc(Cl)c(-c4ccccc4-c4ccccc4)n3)n2)CC1 [Compound 19, 1-(6-(N-(6-([1,1′-biphenyl]-2-yl)-5-chloropyridin-2-yl)sulfamoyl)pyridin-2-yl)-4-methylpiperidine-4-carboxylic Acid]
2 | 1880 nM | 363% | Cc1ccccc1-c1nc(NS(=O)(=O)c2cccc(N3CCC(C)(CC(=O)O)CC3)n2)ccc1C(F)(F)F [Compound 7, 2-(4-methyl-1-(6-(N-(6-(o-tolyl)-5-(trifluoromethyl)pyridin-2-yl)sulfamoyl)pyridin-2-yl)piperidin-4-yl)acetic Acid]
3 | 1520 nM | – | CC(C)c1ccccc1-c1nc(NS(=O)(=O)c2cccc(N(C)CCC(=O)O)n2)ccc1C(F)(F)F [Compound 44, 3-((6-(N-(6-(2-isopropylphenyl)-5-(trifluoromethyl)pyridin-2-yl)sulfamoyl)pyridin-2-yl)(methyl)amino)propanoic Acid]
4 | 2150 nM | 291% | Cc1cccc(C)c1-c1nc(NS(=O)(=O)c2cccc(NCCC(=O)O)n2)ccc1Cl [Compound 1, 3-((6-(N-(5-chloro-6-(2,6-dimethylphenyl)pyridin-2-yl)sulfamoyl)pyridin-2-yl)amino)propanoic Acid]
5 | 2390 nM | – | Cc1ccccc1-c1nc(NS(=O)(=O)c2cccc(NC(C(=O)O)C34CC5CC(CC(C5)C3)C4)n2)ccc1C(F)(F)F (stereo not shown) [Compound 143, 2-(adamantan-1-yl)-2-((6-(N-(6-(o-tolyl)-5-(trifluoromethyl)pyridin-2-yl)sulfamoyl)pyridin-2-yl)amino)acetic Acid]
6 | 830 nM | 829% | CC1(CC(=O)O)CCN(c2cccc(S(=O)(=O)Nc3ccc(C(F)(F)F)c(-c4ccccc4C(C)(C)C)n3)n2)CC1 [Compound 26, 2-(1-(6-(N-(6-(2-(tert-butyl)phenyl)-5-(trifluoromethyl)pyridin-2-yl)sulfamoyl)pyridin-2-yl)-4-methylpiperidin-4-yl)acetic Acid]
7 | 2490 nM | – | Cc1ccc(F)cc1-c1nc(NS(=O)(=O)c2cccc(N(CCCCC(=O)O)C(C)C)n2)ccc1C(F)(F)F [Compound 100, 5-((6-(N-(6-(5-fluoro-2-methylphenyl)-5-(trifluoromethyl)pyridin-2-yl)sulfamoyl)pyridin-2-yl)(isopropyl)amino)pentanoic Acid]
8 | 4460 nM | 84% | Cc1cccc(C)c1-c1nc(NS(=O)(=O)c2ccnc(NC(C)CC(=O)O)c2)ccc1Cl (stereo not shown) [Compound 142, 3-((4-(N-(5-chloro-6-(2,6-dimethylphenyl)pyridin-2-yl)sulfamoyl)pyridin-2-yl)amino)butanoic Acid]
9 | 2960 nM | 222% | Cc1ccccc1-c1nc(NS(=O)(=O)c2cccc(NCCCC(=O)O)n2)ccc1C(F)(F)F [Compound 36, 4-((6-(N-(6-(o-tolyl)-5-(trifluoromethyl)pyridin-2-yl)sulfamoyl)pyridin-2-yl)amino)butanoic Acid]
10 | 1570 nM | – | CCCCN(CCCC(=O)O)c1cccc(S(=O)(=O)Nc2ccc(Cl)c(-c3cccnc3C(C)C)n2)n1 [Compound 112, 4-(butyl(6-(N-(3-chloro-2′-isopropyl-[2,3′-bipyridin]-6-yl)sulfamoyl)pyridin-2-yl)amino)butanoic Acid]
11 | 1280 nM | – | Cc1ccc(F)cc1-c1nc(NS(=O)(=O)c2cccc(N(CCCC(=O)O)CC3CC3)n2)ccc1C(F)(F)F [Compound 104, 4-((cyclopropylmethyl)(6-(N-(6-(5-fluoro-2-methylphenyl)-5-(trifluoromethyl)pyridin-2-yl)sulfamoyl)pyridin-2-yl)amino)butanoic Acid]
12 | 1780 nM | 411% | Cc1ccccc1-c1nc(NS(=O)(=O)c2cccc(N3CCC(C)(CC(=O)O)C3)n2)ccc1C(F)(F)F (stereo not shown) [Compound 53, 2-(3-methyl-1-(6-(N-(6-(o-tolyl)-5-(trifluoromethyl)pyridin-2-yl)sulfamoyl)pyridin-2-yl)pyrrolidin-3-yl)acetic Acid]
